The values that follow are results of earlier work, collected in patent US20150056314A1, “EXTRACTION METHOD FOR USE IN EXTRACTING BENEFICIAL COMPOUNDS FROM COFFEE BEANS” (Applied Food Sciences, Inc., priority 2003, published 2015).

For data set [1], the system named is rat stomach cancer. The conditions noted are these: rat (Shimizu et al J Toxicol Sci 1999).
Data set [2] deals with methylazoxymethanol-induced large intestinal tumors. The settings on record: hamster models.

`O=C(/C=C/c1ccc(O)c(O)c1)O[C@@H]1C[C@](O)(C(=O)O)C[C@@H](O)[C@H]1O` [chlorogenic acid]: the “effect on rat stomach cancer” value in data set [1] is reported as “chemopreventative effect”. Also, in data set [2], the “inhibition of methylazoxymethanol-induced large intestinal tumors” value is reported as “inhibit”.
